The values that follow come from patent US20260158017A1, “KIF18A INHIBITOR” (WIGEN BIOMEDICINE TECHNOLOGY (SHANGHAI) CO., LTD., priority 2021, published 2026).

Molecules are shown by their SMILES. Bounds are passed on as bounds.

The test deals with T1, Recombinant human KIF18A (1-467His-tagged) protein (Homo sapiens, UniProt Q8NI77).
T1 construct: Recombinant human KIF18A (1-467His-tagged) protein; His; made in house
T1 sequence (Q8NI77 1-467): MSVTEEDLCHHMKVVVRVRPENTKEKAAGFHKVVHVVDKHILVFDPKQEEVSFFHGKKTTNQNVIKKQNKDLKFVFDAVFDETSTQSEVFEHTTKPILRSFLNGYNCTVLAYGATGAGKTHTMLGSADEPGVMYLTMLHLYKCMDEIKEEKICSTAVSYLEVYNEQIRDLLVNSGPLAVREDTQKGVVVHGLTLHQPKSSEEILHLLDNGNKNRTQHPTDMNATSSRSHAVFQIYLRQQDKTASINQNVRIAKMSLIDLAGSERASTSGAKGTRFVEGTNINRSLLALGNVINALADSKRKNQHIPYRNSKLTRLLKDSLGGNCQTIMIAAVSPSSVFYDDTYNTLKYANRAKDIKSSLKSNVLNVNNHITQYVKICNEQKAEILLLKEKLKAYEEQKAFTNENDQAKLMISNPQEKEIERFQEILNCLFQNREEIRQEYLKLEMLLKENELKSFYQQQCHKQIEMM
T1 sequence (P02550 whole entry partner): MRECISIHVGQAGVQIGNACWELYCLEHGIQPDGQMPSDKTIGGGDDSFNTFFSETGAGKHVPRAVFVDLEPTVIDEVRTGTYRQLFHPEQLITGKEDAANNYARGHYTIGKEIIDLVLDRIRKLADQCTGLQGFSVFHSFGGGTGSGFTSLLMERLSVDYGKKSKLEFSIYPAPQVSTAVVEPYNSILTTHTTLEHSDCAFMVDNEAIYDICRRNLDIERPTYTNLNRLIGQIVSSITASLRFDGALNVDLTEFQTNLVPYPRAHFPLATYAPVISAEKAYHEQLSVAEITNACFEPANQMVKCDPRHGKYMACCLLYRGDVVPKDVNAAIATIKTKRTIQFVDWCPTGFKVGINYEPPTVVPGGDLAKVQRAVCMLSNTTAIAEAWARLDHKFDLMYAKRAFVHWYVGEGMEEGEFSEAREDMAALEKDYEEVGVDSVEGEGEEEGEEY
T1 sequence (P02554 whole entry partner): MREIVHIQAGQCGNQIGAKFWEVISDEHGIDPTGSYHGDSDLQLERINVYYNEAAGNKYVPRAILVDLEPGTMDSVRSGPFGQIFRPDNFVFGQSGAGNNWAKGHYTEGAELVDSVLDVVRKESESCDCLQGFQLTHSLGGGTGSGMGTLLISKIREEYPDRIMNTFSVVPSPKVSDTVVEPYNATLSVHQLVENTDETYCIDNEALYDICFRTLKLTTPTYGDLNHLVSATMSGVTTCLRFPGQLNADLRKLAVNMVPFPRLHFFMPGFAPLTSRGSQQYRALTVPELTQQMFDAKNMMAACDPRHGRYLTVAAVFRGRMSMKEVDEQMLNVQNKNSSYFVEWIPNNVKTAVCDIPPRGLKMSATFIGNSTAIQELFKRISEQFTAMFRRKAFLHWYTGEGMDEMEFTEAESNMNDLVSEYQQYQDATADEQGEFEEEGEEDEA
Put plainly: KIF18A enzyme assay (microtubule-stimulated ATPase activity, ADP-Glo). The settings on record: 30 nM KIF18A, 75 μM ATP, 30 μg/mL pig microtubules; read-out: Inhibitory activity against KIF18A IC50. The class given is biochemical. Put shortly:
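Buffer 15 mM Tris pH 7.5, 10 mM MgCl2, 0.01% Pluronic F-68, 1 μM paclitaxel, 30 μg/mL pig microtubules; reactions at room temperature. IC50 from inhibition relative to DMSO.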
For the molecule `COc1ccc(C(=O)Nc2ccc(S(=O)(=O)NCCO)cc2N2CCC3(CC2)CC3)nc1N1CC2CC2C1` (stereo not drawn) [Compound 346], the half-inhibitory concentration (IC50) is no more than 100 nM. On to `COc1ccc(C(=O)Nc2ccc(S(=O)(=O)NCCO)cc2N2CCC3(CC2)CC3)nc1NC(C)(C)CO` [Compound 347], for which the 50% inhibitory concentration (IC50) was no more than 100 nM. Under `COc1ccc(C(=O)Nc2ccc(S(=O)(=O)NCCO)cc2N2CCC3(CC2)CC3)nc1N1CCOCC1` [Compound 348] stands no more than 100 nM; under `COc1ccc(C(=O)Nc2ccc(S(=O)(=O)N[C@@H](C)CO)cc2N2CCC3(CC2)CC3)nc1N1CCC(F)(F)CC1` [Compound 349], no more than 100 nM. With `COc1ccc(C(=O)Nc2ccc(S(=O)(=O)N[C@H](C)CO)cc2N2CCC3(CC2)CC3)nc1N1CCC(F)(F)CC1` [Compound 350] the figure was no more than 100 nM. Take `COc1ccc(C(=O)Nc2ccc(S(=O)(=O)N[C@@H](C)CO)cc2N2CCC3(CC2)CC3)nc1N1CCO[C@H](C)C1` [Compound 351]: the IC50 was no more than 100 nM.

`COc1ccc(C(=O)Nc2ccc(S(=O)(=O)N[C@H](C)CO)cc2N2CCC3(CC2)CC3)nc1N1CCO[C@H](C)C1` [Compound 352]: the IC50 was no more than 100 nM. With `COc1ccc(C(=O)Nc2cnc(NS(=O)(=O)CCO)cc2N2CCC3(CC2)CC3)nc1N1CCO[C@H](C)C1` [Compound 354], the concentration for half-maximal inhibition (IC50) is no more than 100 nM. As for `COc1ccc(C(=O)Nc2cnc(NS(=O)(=O)CCO)cc2N2CCC3(CC2)CC3)nc1N1CCO[C@@H](C)C1` [Compound 355], the half-maximal inhibitory concentration (IC50) is no more than 100 nM.

For the molecule `COc1ccc(C(=O)Nc2cnc(NS(=O)(=O)CCO)cc2N2CCC3(CC2)CC3)nc1N1CC(F)(F)C1` [Compound 356], the concentration for half-maximal inhibition (IC50) was no more than 100 nM. Turning to `COc1ccc(C(=O)Nc2cnc(NS(=O)(=O)CCO)cc2N2CCC3(CC2)CC3)nc1OCCC(F)(F)F` [Compound 357], the IC50 was no more than 100 nM. On to `COc1ccc(C(=O)Nc2cnc(NS(=O)(=O)CCO)cc2N2CCC3(CC2)CC3)nc1N1CCC2(CC2)C1` [Compound 358], for which the IC50 was no more than 100 nM. Under `COc1ccc(C(=O)Nc2cnc(NS(=O)(=O)CCO)cc2N2CCC3(CC2)CC3)nc1OC1CCC1` [Compound 359] stands no more than 100 nM; under `COc1ccc(C(=O)Nc2cnc(NS(=O)(=O)CCO)cc2N2CCC3(CC2)CC3)nc1N1CCC(C)(F)C1` (stereo not drawn) [Compound 360], no more than 100 nM.

On to `COc1ccc(C(=O)Nc2cnc(NS(=O)(=O)CCO)cc2N2CCC3(CC2)CC3)nc1N1CCC(F)CC1` [Compound 361], for which the IC50 was no more than 100 nM. Under `COc1ccc(C(=O)Nc2cnc(NS(=O)(=O)CCO)cc2N2CCC3(CC2)CC3)nc1N1CC2CC2C1` (stereo not drawn) [Compound 362] stands no more than 100 nM; under `COc1ccc(C(=O)Nc2cnc(NS(=O)(=O)CCO)cc2N2CCC3(CC2)CC3)nc1NC(C)(C)CO` [Compound 363], no more than 100 nM.

For the molecule `COc1ccc(C(=O)Nc2cnc(NS(=O)(=O)CCO)cc2N2CCC3(CC2)CC3)nc1N1CCOCC1` [Compound 364], the IC50 was no more than 100 nM. With `COc1ccc(C(=O)Nc2cnc(NS(=O)(=O)[C@@H](C)CO)cc2N2CCC3(CC2)CC3)nc1N1CCC(F)(F)CC1` [Compound 365] the figure was no more than 100 nM; with `COc1ccc(C(=O)Nc2cnc(NS(=O)(=O)[C@H](C)CO)cc2N2CCC3(CC2)CC3)nc1N1CCC(F)(F)CC1` [Compound 366], no more than 100 nM; with `COc1ccc(C(=O)Nc2cnc(NS(=O)(=O)[C@@H](C)CO)cc2N2CCC3(CC2)CC3)nc1N1CCO[C@H](C)C1` [Compound 367], no more than 100 nM.

Consider `COc1ccc(C(=O)Nc2cnc(NS(=O)(=O)[C@H](C)CO)cc2N2CCC3(CC2)CC3)nc1N1CCO[C@H](C)C1` [Compound 368], for which the concentration for half-maximal inhibition (IC50) was no more than 100 nM.

Turning to `COc1ccc(C(=O)Nc2cnc(S(=O)(=O)NCCO)cc2N2CCC3(CC2)CC3)nc1N1CCC(F)(F)CC1` [Compound 369], the 50% inhibitory concentration (IC50) is no more than 100 nM. With `COc1ccc(C(=O)Nc2cnc(S(=O)(=O)NCCO)cc2N2CCC3(CC2)CC3)nc1N1CCO[C@H](C)C1` [Compound 370] the figure was no more than 100 nM; with `COc1ccc(C(=O)Nc2cnc(S(=O)(=O)NCCO)cc2N2CCC3(CC2)CC3)nc1N1CCO[C@@H](C)C1` [Compound 371], no more than 100 nM. Under `COc1ccc(C(=O)Nc2cnc(S(=O)(=O)NCCO)cc2N2CCC3(CC2)CC3)nc1N1CC(F)(F)C1` [Compound 372] stands no more than 100 nM; under `COc1ccc(C(=O)Nc2cnc(S(=O)(=O)NCCO)cc2N2CCC3(CC2)CC3)nc1OCCC(F)(F)F` [Compound 373], no more than 100 nM. Under `COc1ccc(C(=O)Nc2cnc(S(=O)(=O)NCCO)cc2N2CCC3(CC2)CC3)nc1N1CCC2(CC2)C1` [Compound 374] stands no more than 100 nM; under `COc1ccc(C(=O)Nc2cnc(S(=O)(=O)NCCO)cc2N2CCC3(CC2)CC3)nc1OC1CCC1` [Compound 375], no more than 100 nM; under `COc1ccc(C(=O)Nc2cnc(S(=O)(=O)NCCO)cc2N2CCC3(CC2)CC3)nc1N1CCC(C)(F)C1` (stereo not drawn) [Compound 376], no more than 100 nM. For `COc1ccc(C(=O)Nc2cnc(S(=O)(=O)NCCO)cc2N2CCC3(CC2)CC3)nc1N1CCC(F)CC1` [Compound 377], the IC50 is no more than 100 nM. With `COc1ccc(C(=O)Nc2cnc(S(=O)(=O)NCCO)cc2N2CCC3(CC2)CC3)nc1N1CC2CC2C1` (stereo not drawn) [Compound 378] the figure was no more than 100 nM; with `COc1ccc(C(=O)Nc2cnc(S(=O)(=O)NCCO)cc2N2CCC3(CC2)CC3)nc1NC(C)(C)CO` [Compound 379], no more than 100 nM; with `COc1ccc(C(=O)Nc2cnc(S(=O)(=O)NCCO)cc2N2CCC3(CC2)CC3)nc1N1CCOCC1` [Compound 380], no more than 100 nM. With `COc1ccc(C(=O)Nc2cnc(S(=O)(=O)N[C@@H](C)CO)cc2N2CCC3(CC2)CC3)nc1N1CCC(F)(F)CC1` [Compound 381] the figure was no more than 100 nM; with `COc1ccc(C(=O)Nc2cnc(S(=O)(=O)N[C@H](C)CO)cc2N2CCC3(CC2)CC3)nc1N1CCC(F)(F)CC1` [Compound 382], no more than 100 nM; with `COc1ccc(C(=O)Nc2cnc(S(=O)(=O)N[C@@H](C)CO)cc2N2CCC3(CC2)CC3)nc1N1CCO[C@H](C)C1` [Compound 383], no more than 100 nM. With `COc1ccc(C(=O)Nc2cnc(NS(=O)(=O)[C@H](C)CO)cc2N2CCC3(CC2)CC3)nc1N1CCO[C@H](C)C1` [Compound 384] the figure was no more than 100 nM; with `C[C@@H]1CN(c2cc(NC(=O)c3ccc(NS(=O)(=O)CCO)cc3N3CCC4(CC3)CC4)ccc2OCF)CCO1` [Compound 386], no more than 100 nM; with `C[C@H]1CN(c2cc(NC(=O)c3ccc(NS(=O)(=O)CCO)cc3N3CCC4(CC3)CC4)ccc2OCF)CCO1` [Compound 387], no more than 100 nM. Take `O=C(Nc1ccc(OCF)c(N2CC(F)(F)C2)c1)c1ccc(NS(=O)(=O)CCO)cc1N1CCC2(CC1)CC2` [Compound 388]: the IC50 was no more than 100 nM. As for `O=C(Nc1ccc(OCF)c(OCCC(F)(F)F)c1)c1ccc(NS(=O)(=O)CCO)cc1N1CCC2(CC1)CC2` [Compound 389], the IC50 is no more than 100 nM. With `O=C(Nc1ccc(OCF)c(N2CCC3(CC3)C2)c1)c1ccc(NS(=O)(=O)CCO)cc1N1CCC2(CC1)CC2` [Compound 390] the figure was no more than 100 nM. With `O=C(Nc1ccc(OCF)c(OC2CCC2)c1)c1ccc(NS(=O)(=O)CCO)cc1N1CCC2(CC1)CC2` [Compound 391] the figure was no more than 100 nM; with `CC1(F)CCN(c2cc(NC(=O)c3ccc(NS(=O)(=O)CCO)cc3N3CCC4(CC3)CC4)ccc2OCF)C1` (stereo not drawn) [Compound 392], no more than 100 nM.

`O=C(Nc1ccc(OCF)c(N2CCC(F)CC2)c1)c1ccc(NS(=O)(=O)CCO)cc1N1CCC2(CC1)CC2` [Compound 393]: the 50% inhibitory concentration (IC50) is no more than 100 nM.

As for `CC(C)(CO)Nc1cc(NC(=O)c2ccc(NS(=O)(=O)CCO)cc2N2CCC3(CC2)CC3)ccc1OCF` [Compound 395], the IC50 is no more than 100 nM. Under `O=C(Nc1ccc(OCF)c(N2CCOCC2)c1)c1ccc(NS(=O)(=O)CCO)cc1N1CCC2(CC1)CC2` [Compound 396] stands no more than 100 nM; under `C[C@@H](CO)S(=O)(=O)Nc1ccc(C(=O)Nc2ccc(OCF)c(N3CCC(F)(F)CC3)c2)c(N2CCC3(CC2)CC3)c1` [Compound 397], no more than 100 nM. With `C[C@H](CO)S(=O)(=O)Nc1ccc(C(=O)Nc2ccc(OCF)c(N3CCC(F)(F)CC3)c2)c(N2CCC3(CC2)CC3)c1` [Compound 398] the figure was no more than 100 nM. `C[C@@H]1CN(c2cc(NC(=O)c3ccc(NS(=O)(=O)[C@@H](C)CO)cc3N3CCC4(CC3)CC4)ccc2OCF)CCO1` [Compound 399]: the half-maximal inhibitory concentration (IC50) was no more than 100 nM. With `O=C(Nc1ccc(OCF)c(N2CCC(F)(F)CC2)c1)c1ccc(S(=O)(=O)NCCO)cc1N1CCC2(CC1)CC2` [Compound 401] the figure was no more than 100 nM. With `C[C@@H]1CN(c2cc(NC(=O)c3cnc(S(=O)(=O)NCCO)cc3N3CCC4(CC3)CC4)ccc2OCF)CCO1` [Compound 402] the figure was no more than 100 nM; with `C[C@H]1CN(c2cc(C(=O)Nc3ccc(S(=O)(=O)NCCO)cc3N3CCC4(CC3)CC4)ccc2OCF)CCO1` [Compound 403], no more than 100 nM. Under `O=C(Nc1ccc(OCF)c(N2CC(F)(F)C2)c1)c1ccc(S(=O)(=O)NCCO)cc1N1CCC2(CC1)CC2` [Compound 404] stands no more than 100 nM; under `O=C(Nc1ccc(OCF)c(OCCC(F)(F)F)c1)c1ccc(S(=O)(=O)NCCO)cc1N1CCC2(CC1)CC2` [Compound 405], no more than 100 nM. Consider `O=C(Nc1ccc(OCF)c(N2CCC3(CC3)C2)c1)c1ccc(S(=O)(=O)NCCO)cc1N1CCC2(CC1)CC2` [Compound 406], for which the half-maximal inhibitory concentration (IC50) is no more than 100 nM. With `O=C(Nc1ccc(OCF)c(OC2CCC2)c1)c1ccc(S(=O)(=O)NCCO)cc1N1CCC2(CC1)CC2` [Compound 407] the figure was no more than 100 nM; with `CC1(F)CCN(c2cc(NC(=O)c3ccc(S(=O)(=O)NCCO)cc3N3CCC4(CC3)CC4)ccc2OCF)C1` (stereo not drawn) [Compound 408], no more than 100 nM. Under `O=C(Nc1ccc(OCF)c(N2CCC(F)CC2)c1)c1ccc(S(=O)(=O)NCCO)cc1N1CCC2(CC1)CC2` [Compound 409] stands no more than 100 nM.
